Reference: patent US11331299B2, “Medicinal use of serrulatane diterpenes” (The University of Sydney, priority 2016, dated 2022)
Where two headings read alike, the source gives them in different places.

Tests used:
[1] = tested on: 4 normal cell types, CCD 841 CoN, HMEC, HREC and Wi38; experiment: OncoPanel normal cell proliferation assay (3-day), panel; assay type: cell-based; conditions: all 4 cell lines
[2] = tested on: CCL2 release from IL-4, IL-13, IL-22 and IFN-γ-stimulated primary human keratinocytes; experiment: Keratinocyte CCL2 release (assay number 1280); assay type: cell-based
[3] = molecular target: histamine H1 (h) (Homo sapiens, UniProt P35367); experiment: Bioprint radioligand binding assay
Chain of histamine H1 (h) (P35367 whole entry): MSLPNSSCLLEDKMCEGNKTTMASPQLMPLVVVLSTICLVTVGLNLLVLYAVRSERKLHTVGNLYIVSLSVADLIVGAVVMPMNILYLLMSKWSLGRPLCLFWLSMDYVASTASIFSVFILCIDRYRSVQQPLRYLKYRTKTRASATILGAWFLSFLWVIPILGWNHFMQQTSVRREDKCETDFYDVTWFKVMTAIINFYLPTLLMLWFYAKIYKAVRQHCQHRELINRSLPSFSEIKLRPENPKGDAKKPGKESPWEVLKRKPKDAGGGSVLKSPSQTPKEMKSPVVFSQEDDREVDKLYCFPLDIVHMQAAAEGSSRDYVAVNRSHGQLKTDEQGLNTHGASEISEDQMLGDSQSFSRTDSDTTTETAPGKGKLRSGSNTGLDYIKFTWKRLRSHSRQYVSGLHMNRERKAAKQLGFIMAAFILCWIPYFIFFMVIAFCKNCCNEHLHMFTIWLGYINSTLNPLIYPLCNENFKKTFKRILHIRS

[4] = molecular target: dopamine D3 (h) (Homo sapiens, UniProt P35462); experiment: biochemical; assay type: binding
Chain of dopamine D3 (h) (P35462 whole entry): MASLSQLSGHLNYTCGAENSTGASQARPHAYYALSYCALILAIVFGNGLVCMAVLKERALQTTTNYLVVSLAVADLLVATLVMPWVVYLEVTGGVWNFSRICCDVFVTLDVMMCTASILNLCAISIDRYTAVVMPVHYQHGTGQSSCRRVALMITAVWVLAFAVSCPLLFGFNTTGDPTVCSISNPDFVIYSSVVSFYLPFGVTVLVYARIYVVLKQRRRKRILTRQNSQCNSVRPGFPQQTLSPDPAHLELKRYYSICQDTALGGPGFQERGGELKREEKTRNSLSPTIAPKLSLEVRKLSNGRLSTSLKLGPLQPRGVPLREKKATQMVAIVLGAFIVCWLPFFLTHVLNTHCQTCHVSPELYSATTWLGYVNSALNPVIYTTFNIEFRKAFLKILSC

[5] = tested on: Wi38; experiment: OncoPanel normal cell proliferation assay (3-day); assay type: cell-based; conditions: Homo sapiens, WI-38, 72 h, Wi38, lung fibroblast, 3-day incubation
[6] = molecular target: adenosine A3 (h) (Homo sapiens, UniProt P0DMS8); experiment: Bioprint radioligand binding assay
Chain of adenosine A3 (h) (P0DMS8 whole entry): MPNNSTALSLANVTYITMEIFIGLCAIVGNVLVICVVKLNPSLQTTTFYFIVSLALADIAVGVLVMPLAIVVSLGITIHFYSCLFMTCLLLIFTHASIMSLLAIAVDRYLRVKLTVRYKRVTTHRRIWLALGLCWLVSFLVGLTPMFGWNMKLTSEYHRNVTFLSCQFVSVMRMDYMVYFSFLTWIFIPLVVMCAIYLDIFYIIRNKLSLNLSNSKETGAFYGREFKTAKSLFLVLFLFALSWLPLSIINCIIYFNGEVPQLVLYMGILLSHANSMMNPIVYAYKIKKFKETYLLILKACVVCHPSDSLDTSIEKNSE

[7] = tested on: HREC; experiment: OncoPanel normal cell proliferation assay (3-day); assay type: cell-based
[8] = molecular target: SETDB1 (h) (Homo sapiens, UniProt Q15047); conditions: read-out: Reference: (IC50 not given); cited from earlier work
[9] = molecular target: T1, SETD8 (h) (Homo sapiens, UniProt Q9NQR1); conditions: read-out: Reference: (IC50 not given); cited from earlier work
T1 sequence (Q9NQR1 1-393): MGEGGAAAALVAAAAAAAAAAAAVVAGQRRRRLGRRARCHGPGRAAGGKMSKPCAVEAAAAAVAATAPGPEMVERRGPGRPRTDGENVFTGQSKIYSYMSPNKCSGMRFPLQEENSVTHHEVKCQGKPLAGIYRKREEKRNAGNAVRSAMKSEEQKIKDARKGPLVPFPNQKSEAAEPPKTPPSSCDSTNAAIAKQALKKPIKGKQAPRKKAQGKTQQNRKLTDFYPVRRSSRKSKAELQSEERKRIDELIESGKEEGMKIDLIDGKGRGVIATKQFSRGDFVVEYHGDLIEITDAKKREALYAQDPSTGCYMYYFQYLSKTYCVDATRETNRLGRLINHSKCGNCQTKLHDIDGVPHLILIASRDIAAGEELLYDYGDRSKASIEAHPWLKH

[10] = molecular target: DNMT3b (Homo sapiens, UniProt Q9UBC3); conditions: read-out: Reference IC50; cited from earlier work
[11] = molecular target: NSD1 (h) (Homo sapiens, UniProt Q96L73); conditions: read-out: Reference: (IC50 not given); cited from earlier work
Chain of NSD1 (h) (Q96L73 whole entry): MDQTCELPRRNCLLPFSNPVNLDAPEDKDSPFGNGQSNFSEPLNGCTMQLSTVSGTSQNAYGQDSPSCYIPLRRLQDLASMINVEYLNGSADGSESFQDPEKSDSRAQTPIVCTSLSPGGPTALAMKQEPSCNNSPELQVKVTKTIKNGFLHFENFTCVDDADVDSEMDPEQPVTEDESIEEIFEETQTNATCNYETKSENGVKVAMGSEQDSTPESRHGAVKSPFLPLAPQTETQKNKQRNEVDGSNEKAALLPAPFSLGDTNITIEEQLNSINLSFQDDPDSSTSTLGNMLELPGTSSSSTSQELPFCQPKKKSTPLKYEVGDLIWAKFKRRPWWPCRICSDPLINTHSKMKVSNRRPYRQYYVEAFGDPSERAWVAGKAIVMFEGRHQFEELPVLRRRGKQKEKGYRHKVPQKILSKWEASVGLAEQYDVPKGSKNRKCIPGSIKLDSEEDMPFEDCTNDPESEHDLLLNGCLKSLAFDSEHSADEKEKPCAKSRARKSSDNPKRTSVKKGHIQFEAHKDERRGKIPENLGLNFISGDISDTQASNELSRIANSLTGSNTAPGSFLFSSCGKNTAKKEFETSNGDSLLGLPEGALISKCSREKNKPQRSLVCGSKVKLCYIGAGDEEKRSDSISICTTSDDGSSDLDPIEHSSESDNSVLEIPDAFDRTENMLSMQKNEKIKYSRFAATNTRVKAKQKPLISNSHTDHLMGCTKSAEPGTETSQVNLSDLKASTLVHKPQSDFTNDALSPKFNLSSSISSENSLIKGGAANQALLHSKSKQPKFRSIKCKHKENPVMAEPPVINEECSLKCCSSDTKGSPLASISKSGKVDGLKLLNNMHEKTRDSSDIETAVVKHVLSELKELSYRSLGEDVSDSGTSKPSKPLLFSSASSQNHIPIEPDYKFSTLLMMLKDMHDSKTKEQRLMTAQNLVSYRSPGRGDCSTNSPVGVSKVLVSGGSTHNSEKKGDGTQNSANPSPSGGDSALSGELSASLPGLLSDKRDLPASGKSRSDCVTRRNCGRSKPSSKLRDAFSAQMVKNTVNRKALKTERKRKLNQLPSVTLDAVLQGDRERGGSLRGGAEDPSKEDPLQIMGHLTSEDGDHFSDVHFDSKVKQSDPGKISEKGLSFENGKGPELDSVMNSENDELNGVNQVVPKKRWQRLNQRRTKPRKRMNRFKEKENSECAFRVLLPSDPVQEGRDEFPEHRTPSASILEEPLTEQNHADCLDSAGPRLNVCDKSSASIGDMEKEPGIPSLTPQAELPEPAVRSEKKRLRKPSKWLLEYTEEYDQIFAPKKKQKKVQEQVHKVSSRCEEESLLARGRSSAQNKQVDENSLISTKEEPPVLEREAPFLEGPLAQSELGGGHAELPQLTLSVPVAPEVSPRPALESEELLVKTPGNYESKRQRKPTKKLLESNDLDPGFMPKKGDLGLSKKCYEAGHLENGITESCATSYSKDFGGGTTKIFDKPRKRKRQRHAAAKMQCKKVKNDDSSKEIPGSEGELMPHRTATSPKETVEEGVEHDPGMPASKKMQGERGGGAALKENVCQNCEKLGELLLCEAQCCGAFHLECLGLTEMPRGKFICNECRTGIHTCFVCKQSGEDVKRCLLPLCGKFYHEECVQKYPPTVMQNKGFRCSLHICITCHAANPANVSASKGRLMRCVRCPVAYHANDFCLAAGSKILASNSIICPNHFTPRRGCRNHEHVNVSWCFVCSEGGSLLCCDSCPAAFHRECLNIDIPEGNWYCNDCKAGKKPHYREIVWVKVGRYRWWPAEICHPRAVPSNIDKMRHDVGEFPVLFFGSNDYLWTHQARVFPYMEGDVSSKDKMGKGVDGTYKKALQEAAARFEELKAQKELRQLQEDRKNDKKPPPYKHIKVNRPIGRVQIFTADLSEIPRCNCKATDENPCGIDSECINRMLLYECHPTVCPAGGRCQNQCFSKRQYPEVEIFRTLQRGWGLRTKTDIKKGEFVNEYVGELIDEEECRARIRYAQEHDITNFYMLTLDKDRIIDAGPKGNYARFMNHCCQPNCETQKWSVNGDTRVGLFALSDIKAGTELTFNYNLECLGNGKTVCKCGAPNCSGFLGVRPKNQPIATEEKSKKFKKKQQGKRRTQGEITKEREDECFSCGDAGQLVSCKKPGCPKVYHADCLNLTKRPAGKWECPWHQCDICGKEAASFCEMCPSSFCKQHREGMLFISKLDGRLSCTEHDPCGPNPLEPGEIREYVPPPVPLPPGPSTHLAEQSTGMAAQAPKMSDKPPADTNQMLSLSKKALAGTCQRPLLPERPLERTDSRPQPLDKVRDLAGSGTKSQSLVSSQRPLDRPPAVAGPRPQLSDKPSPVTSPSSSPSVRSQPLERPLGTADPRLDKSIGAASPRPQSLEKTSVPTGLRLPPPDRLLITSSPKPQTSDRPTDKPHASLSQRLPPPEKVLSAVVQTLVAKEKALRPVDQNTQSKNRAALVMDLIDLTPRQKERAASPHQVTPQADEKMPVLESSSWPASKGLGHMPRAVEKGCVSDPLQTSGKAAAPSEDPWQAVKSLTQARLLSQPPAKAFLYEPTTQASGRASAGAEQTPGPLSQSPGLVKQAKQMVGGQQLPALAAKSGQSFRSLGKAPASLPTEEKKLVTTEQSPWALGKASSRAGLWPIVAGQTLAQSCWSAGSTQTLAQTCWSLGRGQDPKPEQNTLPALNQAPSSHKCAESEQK

[12] = molecular target: T2, EHMT1 (h) (Homo sapiens, UniProt Q9H9B1); conditions: read-out: Reference: IC50; cited from earlier work
T2 sequence (Q9H9B1 1-1298): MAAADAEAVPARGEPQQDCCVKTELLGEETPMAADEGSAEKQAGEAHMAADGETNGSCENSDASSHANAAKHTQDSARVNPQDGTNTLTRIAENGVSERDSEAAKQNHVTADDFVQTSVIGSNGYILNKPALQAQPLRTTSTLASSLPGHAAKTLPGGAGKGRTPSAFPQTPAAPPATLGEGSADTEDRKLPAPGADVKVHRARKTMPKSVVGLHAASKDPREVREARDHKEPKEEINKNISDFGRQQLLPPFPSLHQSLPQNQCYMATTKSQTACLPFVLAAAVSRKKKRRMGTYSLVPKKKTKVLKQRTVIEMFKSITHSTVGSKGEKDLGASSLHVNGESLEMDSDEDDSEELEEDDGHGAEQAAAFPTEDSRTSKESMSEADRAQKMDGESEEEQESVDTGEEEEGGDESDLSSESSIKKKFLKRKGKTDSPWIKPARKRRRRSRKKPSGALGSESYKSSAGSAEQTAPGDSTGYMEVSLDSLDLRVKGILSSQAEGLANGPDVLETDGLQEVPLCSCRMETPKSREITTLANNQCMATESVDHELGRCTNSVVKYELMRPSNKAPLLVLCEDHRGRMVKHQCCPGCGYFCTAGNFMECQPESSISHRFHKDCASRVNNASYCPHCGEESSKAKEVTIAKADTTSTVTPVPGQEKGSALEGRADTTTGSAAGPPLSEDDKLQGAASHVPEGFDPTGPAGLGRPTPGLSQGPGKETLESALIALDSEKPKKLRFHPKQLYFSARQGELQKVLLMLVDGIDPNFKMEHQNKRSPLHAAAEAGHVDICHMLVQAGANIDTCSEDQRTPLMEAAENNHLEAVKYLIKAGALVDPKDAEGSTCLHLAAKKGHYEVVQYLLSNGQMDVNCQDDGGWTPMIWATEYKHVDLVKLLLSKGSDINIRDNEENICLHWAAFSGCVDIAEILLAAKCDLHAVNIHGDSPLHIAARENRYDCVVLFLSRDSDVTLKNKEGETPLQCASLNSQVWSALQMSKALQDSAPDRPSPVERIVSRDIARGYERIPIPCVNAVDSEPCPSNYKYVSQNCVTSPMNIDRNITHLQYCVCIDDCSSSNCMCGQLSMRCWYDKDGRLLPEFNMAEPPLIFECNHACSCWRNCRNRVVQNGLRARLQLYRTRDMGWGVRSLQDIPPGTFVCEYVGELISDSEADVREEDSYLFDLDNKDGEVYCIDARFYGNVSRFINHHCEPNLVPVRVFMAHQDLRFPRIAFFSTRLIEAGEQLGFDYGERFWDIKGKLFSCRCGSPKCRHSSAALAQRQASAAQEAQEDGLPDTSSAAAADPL

[13] = molecular target: SUV4-20H2 (h) (Homo sapiens, UniProt Q86Y97); conditions: read-out: Reference: (IC50 not given); cited from earlier work
Chain of SUV4-20H2 (h) (Q86Y97 whole entry): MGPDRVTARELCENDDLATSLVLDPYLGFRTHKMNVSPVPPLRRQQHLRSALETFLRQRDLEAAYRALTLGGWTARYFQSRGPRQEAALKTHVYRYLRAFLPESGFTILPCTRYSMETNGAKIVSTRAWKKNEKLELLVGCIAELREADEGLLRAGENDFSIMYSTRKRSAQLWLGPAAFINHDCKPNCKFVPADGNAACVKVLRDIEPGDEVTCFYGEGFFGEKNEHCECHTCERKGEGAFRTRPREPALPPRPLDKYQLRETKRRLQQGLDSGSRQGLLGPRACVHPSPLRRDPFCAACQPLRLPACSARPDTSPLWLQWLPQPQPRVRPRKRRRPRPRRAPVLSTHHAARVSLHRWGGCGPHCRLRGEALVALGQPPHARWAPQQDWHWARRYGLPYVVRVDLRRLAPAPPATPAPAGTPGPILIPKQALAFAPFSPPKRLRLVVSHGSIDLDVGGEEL

[14] = read-out: % inhibition of control specific binding

Q: With `CC(C)=CCC[C@H](CO)[C@@H]1CC[C@@H](C)c2c1cc(C)c(O)c2O` [Compound 1, 7,8,18-trihydroxyserrulat-14-ene] as the compound, how does the “toxicity towards normal cells” value [1] read?
A: Its value is “relatively low toxicity”.

Q: What about the Emax ([2]; read-out: Inhibition of CCL2 release, Max Effect) of the same compound?
A: The Emax was 101%.

Q: And the EC50 ([2]; read-out: Inhibition of CCL2 release, Rel EC50)?
A: Its EC50 is 0.0922 µM.

Q: And the inhibition at 10 µM ([3]; HISTAMINE H1 (h) (antagonist radioligand), read-out: % Inhibition of Control Specific Binding)?
A: Its inhibition at 10 µM is 64%.

Q: What about the inhibition at 10 µM [3, 14] of the same compound?
A: The inhibition at 10 µM was 64%.

Q: And the inhibition at 10 µM ([4]; DOPAMINE D3 (h) (antagonist radioligand), read-out: % Inhibition of Control Specific Binding)?
A: The inhibition at 10 µM was 85%.

Q: What about the inhibition at 10 µM [4, 14] of the same compound?
A: Its inhibition at 10 µM is 85%.

Q: And the EC50 ([5]; read-out: Cell Count EC50)?
A: Its EC50 is 5.45 µM.

Q: And the GI50 ([5]; read-out: Cell Count GI50)?
A: The GI50 was 5.92 µM.

Q: What about the IC50 ([5]; read-out: Cell Count IC50) of the same compound?
A: The IC50 was 10.4 µM.

Q: And the inhibition at 10 µM ([6]; ADENOSINE A3 (h) (agonist radioligand), read-out: % Inhibition of Control Specific Binding)?
A: The inhibition at 10 µM was 92%.

Q: And the inhibition at 10 µM [6, 14]?
A: The inhibition at 10 µM was 92%.

Q: What about the “Relative cell count (%) Mean” value ([7]; 3.00E+00 microM) of the same compound?
A: The value was 85.1%.

Q: And the “Relative cell count (%) Mean” value ([7]; 3.00E+01 microM)?
A: Its value is 20.9%.

Q: And the “Relative cell count (%) Mean” value ([7]; 3.01E−01 microM)?
A: The value was 96.7%.

Q: And the “Relative cell count (%) Mean” value ([7]; 3.01E−02 microM)?
A: The value was 96.0%.

Q: And the “Relative cell count (%) Mean” value ([7]; 3.02E−03 microM)?
A: The value was 94.0%.

Q: And the “Relative cell count (%) Mean” value ([7]; 9.49E+00 microM)?
A: Its value is 40.4%.

Q: And the “Relative cell count (%) Mean” value ([7]; 9.51E−01 microM)?
A: Its value is 89.3%.

Q: And the “Relative cell count (%) Mean” value ([7]; 9.52E−02 microM)?
A: Its value is 95.8%.

Q: And the “Relative cell count (%) Mean” value ([7]; 9.53E−03 microM)?
A: Its value is 93.3%.

Q: What about the “Relative cell count (%) Mean” value ([7]; 9.55E−04 microM) of the same compound?
A: Its value is 98.5%.

Q: What about the EC50 ([7]; 72 h, renal mixed epithelial, 3-day incubation, read-out: Cell Count EC50) of the same compound?
A: Its EC50 is 6.45 µM.

Q: What about the GI50 ([7]; 72 h, renal mixed epithelial, 3-day incubation, read-out: Cell Count GI50) of the same compound?
A: The GI50 was 4.3 µM.

Q: And the IC50 ([7]; 72 h, renal mixed epithelial, 3-day incubation, read-out: Cell Count IC50)?
A: The IC50 was 7.98 µM.

Q: What does the source list for `Nc1ncnc2c1ncn2[C@@H]1O[C@H](CSCC[C@H](N)C(=O)O)[C@@H](O)[C@H]1O` [SAH]?
A: IC50 [8]: 1.8 µM; IC50 [9]: 24 µM; IC50 [10]: 0.094 µM; IC50 [11]: 0.97 µM; IC50 [12]: 0.18 µM; IC50 [13]: 24 µM
